According to patent US9566351B2, “Molecular containers and methods of making and using same” (University of Maryland, College Park, priority 2010, dated 2017):
Read-outs that look alike come from different tables or passages of the source.

Assays:
[1] = drug with Motor1; 20 mM sodium phosphate buffer (pH=7.4); phase diagram
[2] = mice; repeated oral dosing of 30-40 mg/kg/day for 4-90 days; cited from earlier work
[3] = Swiss Webster, mouse, in vivo, iv, 3.2 mg/kg
in vivo [4] = settings: Swiss Webster, mouse, iv, plasma concentration
glioblastoma multiforme = settings: daily oral doses (50 and 150 mg/kg) of ABZ tablets mixed with 50% sesame oil; cited from earlier work
[5] = tested on: SKHEP-1 (human liver adenocarcinoma) xenografts; settings: ABZ in sesame oil; xenografts on the flank of mice; cited from earlier work
[6] = tested on: OVCAR-3 (human ovarian adenocarcinoma); settings: 150 mg/kg of ABZ 3 times a week for 4 weeks through IP; cited from earlier work
in vivo [7] = settings: Swiss Webster, mouse, ip, plasma concentration
[8] = Phase-solubility of pharmaceutical agents with Motor2 (1H NMR); settings: drug solubilized with Motor2; 20 mM sodium phosphate buffer (pH=7.4); phase diagram
SK-OV-3 cells = settings: ABZ formulated in ethanol; cited from earlier work
[9] = Swiss Webster, mouse, in vivo

For `CCCSc1ccc2nc(NC(=O)OC)[nH]c2c1` [Albendazole], the Solubility enhancement [1] is listed as 226 fold, the signs of toxicity [2] is listed as “no significant signs of toxicity” and the “tmax” value [3] is listed as 4.98 min. For the same compound, the concentration at 5 min (in vivo [4]) was 1910 ng/mL, the concentration at 15 min (in vivo [4]) was 606 ng/mL and the mouse survival (glioblastoma multiforme) was “moderate improvements in mouse survival”. The “daily oral dose required to see an antitumor effect” value [5] was 300 mg/kg, the “effect on malignant ascites” value [6] was “suppression of malignant ascites” and the concentration at 15 min (in vivo [7]) was 380 ng/mL. The concentration at 30 min (in vivo [7]) was 292 ng/mL, the concentration at 2 h (in vivo [7]) was 122 ng/mL and the Solubility enhancement [8] was 149 fold. The IC50 (SK-OV-3 cells) was 3.88 µM, the “Absolute Bioavailability (%)” value [9] was 78% and the “tmax” value ([9]; ip, 3.2 mg/kg) was 4.98 min.
